Reference: patent US10537575B2, “Phosphodiesterase inhibitors to repair brain and/or retinal injury in human newborns” (priority 2016, dated 2020)

Experiments:
[1] = test system: Long-Evans rat pups (term neonatal HIE model); assay: Retinal histology, thicknesses of retinal layers at P30; type: in vivo; design: Effect size, RPE thickness / Effect size, OS thickness / Effect size, IS thickness / Effect size, ONL thickness / Effect size, OPL thickness / Effect size, INL thickness / Effect size, IPL thickness / Effect size, total thickness: scale not given here; settings: for Effect size, INL thickness / Effect size, IPL thickness / Effect size, IS thickness / Effect size, ONL thickness / Effect size, OPL thickness / Effect size, OS thickness / Effect size, RGC/FL thickness / Effect size, RPE thickness / Effect size, total thickness: compared to HI vehicle rat pups; for INL thickness / IPL thickness / IS thickness / ONL thickness / OPL thickness / OS thickness (outer segment) / RGC/FL thickness / RPE thickness / Total thickness: left eye, P30
Description: A well-established rat model of term neonatal HIE (Vannucci model) (Patel S D et al., 2014, Patel S D et al., 2015; […] et al., 2009; […] et al., 2009; Rice J E, 3rd et al., 1981) and produces concomitant retinal injury (Jung S et al., 2015). Rats undergoing both the ligation and hypoxia were considered the HI group. Sham operated rats (identical procedure as the HI group, but without ligation and hypoxia) served as the control group. […] Different doses of sildenafil-i.e., low (2 mg/kg), medium (10 mg/kg), and high (50 mg/kg)-were used in the HI and sham rat pups (n=4-7 animals/group). At P30, the animals were sacrificed, and the eyes were enucleated. Retinal histology was performed as per a previously described protocol (Jung S et al., 2015). […] Then, the retinal layer thickness was plotted against eccentricity to obtain the spider graphs (FIG. 7B).

[2] = test system: Long-Evans rat pups (neonatal HI); assay: White matter myelination, oligodendrocytes and neuroinflammation after neonatal HI; type: in vivo; settings: P30
Description: Neonatal HI was induced in male Long-Evans rat pups at postnatal day 10 (P10) by left common carotid ligation followed by 2-hour exposure to 8% oxygen. Sham operated rat pups served as control. […] At P30, rats were sacrificed and their brains extracted. Hematoxylin and eosin staining was performed to analyze the structure of the myelin sheath. Olig2 and CC-1 immunostaining were performed to assess the proportion of mature oligodendrocyte to total oligodendrocytes. GFAP, Iba1, and Mac2 immunostaining was used to label reactive astrocytes and activated microglia. Collagen IV was used to investigate microvessels. Corpus callosum and left external capsule were the 2 regions where these markers were assessed to evaluate “white matter”.

[3] = test system: Long-Evans rat pups (term neonatal HIE model); assay: Brain structure, hematoxylin and eosin coronal sections at P30; settings: HI
Description: A well-established Vannucci rat model of term neonatal HIE, which combined a left common carotid artery ligation and a 2 hour exposure to hypoxia (8% oxygen) in 10-day-old (P10) rat pups, was used for the experiments, since this model is generally recognized to mimic the brain injuries observed in human term asphyxiated newborns. Briefly, the 10-day-old male Long-Evans rat pups were weighed and then deeply anesthetized with an intraperitoneal injection of fentanyl (0.2 mg/kg) and midazolam (1 mg/kg) to the point of unresponsiveness to noxious stimulation. Lidocaine-prilocaine cream (EMLA®; AstraZeneca Inc.) was applied to the ventral neck skin 30 minutes before surgery. The skin was cleaned with 2% chlorhexidine solution followed by 70% alcohol. A vertical incision was made along the ventral surface of the neck. The left common carotid artery was located, isolated, and then ligated with a single tight suture. Following the unilateral ligation, the skin incision was closed with an adhesive (n-butyl cyanoacrylate; 3 M VetBond Tissue Adhesive®; 3 M USA). The anesthesia was reversed with an intraperitoneal injection of naloxone (0.1 mg/kg) and flumazenil (1 mg/kg). […] For each rat pup, anesthesia time and surgical time were kept to a minimal time of less than 5-10 minutes. The pups were allowed to recover for approximately 1.5 h after surgery and then were placed in a sealed hypoxia chamber (Plastic Concepts, North Billerica, USA). The sealed chamber was infused with nitrogen until a level of 8% oxygen was reached, which was maintained for 2 h (oxygen analyzer model 600, Engineered Systems & Designs, Newark, Del.). The pups were allowed to recover for 30 minutes and then were returned to their cages with the mother. The rats undergoing the whole procedure were considered as the hypoxic-ischemic (HI) group (n=10-12 animals/groups). Sham operated rat pups (identical procedure as the HI group, but not the ligation and hypoxia) served as the control group (n=10-12 animals/groups). […]

Which “thicknesses of affected retinal layers, response” value ([1]; HI, 10 mg/kg and 50 mg/kg doses) does the source give for CCCc1nn(C)c2c(=O)[nH]c(-c3cc(S(=O)(=O)N4CCN(C)CC4)ccc3OCC)nc12 [sildenafil] here?
The value was “significantly improved response in terms of thicknesses of all the affected layers”.

And the “Effect size, INL thickness” value ([1]; HI, Sild 2 mg/kg)?
The value was 4.94.

And the “Effect size, IPL thickness” value ([1]; HI, Sild 2 mg/kg)?
The value was 0.11.

And the “Effect size, IS thickness” value ([1]; HI, Sild 2 mg/kg)?
The value was 2.16.

And the “Effect size, ONL thickness” value ([1]; HI, Sild 2 mg/kg)?
Its value is 0.71.

What about the “Effect size, OPL thickness” value ([1]; HI, Sild 2 mg/kg) of the same compound?
Its value is 4.91.

What about the “Effect size, OS thickness” value ([1]; HI, Sild 2 mg/kg) of the same compound?
The value was 0.40.

And the “Effect size, RGC/FL thickness” value ([1]; HI, Sild 2 mg/kg)?
Its value is 1.37.

What about the “Effect size, RPE thickness” value ([1]; HI, Sild 2 mg/kg) of the same compound?
Its value is 0.25.

And the “Effect size, total thickness” value ([1]; HI, Sild 2 mg/kg)?
The value was 14.72.

What about the “Effect size, INL thickness” value ([1]; HI, Sild 10 mg/kg) of the same compound?
The value was 19.74.

What about the “Effect size, IPL thickness” value ([1]; HI, Sild 10 mg/kg) of the same compound?
The value was 42.08.

And the “Effect size, IS thickness” value ([1]; HI, Sild 10 mg/kg)?
Its value is −7.24.

What about the “Effect size, ONL thickness” value ([1]; HI, Sild 10 mg/kg) of the same compound?
The value was −19.22.

What about the “Effect size, OPL thickness” value ([1]; HI, Sild 10 mg/kg) of the same compound?
Its value is 8.67.

And the “Effect size, OS thickness” value ([1]; HI, Sild 10 mg/kg)?
The value was −8.55.

What about the “Effect size, RGC/FL thickness” value ([1]; HI, Sild 10 mg/kg) of the same compound?
Its value is 18.37.

And the “Effect size, RPE thickness” value ([1]; HI, Sild 10 mg/kg)?
Its value is −0.73.

What about the “Effect size, total thickness” value ([1]; HI, Sild 10 mg/kg) of the same compound?
Its value is 53.09.

And the “Effect size, INL thickness” value ([1]; HI, Sild 50 mg/kg)?
The value was 21.65.

What about the “Effect size, IPL thickness” value ([1]; HI, Sild 50 mg/kg) of the same compound?
The value was 41.40.

And the “Effect size, IS thickness” value ([1]; HI, Sild 50 mg/kg)?
The value was −7.50.

What about the “Effect size, ONL thickness” value ([1]; HI, Sild 50 mg/kg) of the same compound?
Its value is −17.36.

What about the “Effect size, OPL thickness” value ([1]; HI, Sild 50 mg/kg) of the same compound?
The value was 8.95.

What about the “Effect size, OS thickness” value ([1]; HI, Sild 50 mg/kg) of the same compound?
The value was −9.86.

What about the “Effect size, RGC/FL thickness” value ([1]; HI, Sild 50 mg/kg) of the same compound?
Its value is 16.59.

What about the “Effect size, RPE thickness” value ([1]; HI, Sild 50 mg/kg) of the same compound?
The value was −0.59.

What about the “Effect size, total thickness” value ([1]; HI, Sild 50 mg/kg) of the same compound?
The value was 53.25.

What about the “topographic retinal thickness (spider graph)” value ([1]; HI, low-dose of sildenafil) of the same compound?
Its value is “did not seem to reverse any of the HI-induced changes in retinal thickness, except in the inferior retina”.

What about the “topographic retinal thickness (spider graph)” value ([1]; HI, medium and high doses of sildenafil) of the same compound?
Its value is “nearly normal inner retina at almost all retinal eccentricities”.

And the INL thickness ([1]; HI, Sild 2 mg/kg)?
Its INL thickness is 14.71 ± 2.57 μm.

And the IPL thickness ([1]; HI, Sild 2 mg/kg)?
Its IPL thickness is 2.95 ± 2.60 μm.

And the IS thickness ([1]; HI, Sild 2 mg/kg)?
Its IS thickness is 23.83 ± 3.12 μm.

And the ONL thickness ([1]; HI, Sild 2 mg/kg)?
The ONL thickness was 70.88 ± 2.88 μm.

And the OPL thickness ([1]; HI, Sild 2 mg/kg)?
The OPL thickness was 5.72 ± 3.05 μm.

What about the “OS thickness (outer segment)” value ([1]; HI, Sild 2 mg/kg) of the same compound?
The value was 38.14 ± 3.66 μm.

What about the RGC/FL thickness ([1]; HI, Sild 2 mg/kg) of the same compound?
Its RGC/FL thickness is 2.28 ± 2.28 μm.

What about the RPE thickness ([1]; HI, Sild 2 mg/kg) of the same compound?
The RPE thickness was 8.88 ± 0.24 μm.

And the Total thickness ([1]; HI, Sild 2 mg/kg)?
The Total thickness was 167.28 ± 2.63 μm.

And the INL thickness ([1]; HI, Sild 10 mg/kg)?
The INL thickness was 29.50 ± 1.70 μm.

What about the IPL thickness ([1]; HI, Sild 10 mg/kg) of the same compound?
The IPL thickness was 44.93 ± 7.35 μm.

And the IS thickness ([1]; HI, Sild 10 mg/kg)?
The IS thickness was 14.43 ± 1.15 μm.

What about the ONL thickness ([1]; HI, Sild 10 mg/kg) of the same compound?
Its ONL thickness is 50.95 ± 0.76 μm.

And the OPL thickness ([1]; HI, Sild 10 mg/kg)?
The OPL thickness was 9.48 ± 0.38 μm.

What about the “OS thickness (outer segment)” value ([1]; HI, Sild 10 mg/kg) of the same compound?
The value was 29.18 ± 2.14 μm.

And the RGC/FL thickness ([1]; HI, Sild 10 mg/kg)?
Its RGC/FL thickness is 19.28 ± 3.36 μm.

What about the RPE thickness ([1]; HI, Sild 10 mg/kg) of the same compound?
Its RPE thickness is 7.89 ± 0.35 μm.

What about the Total thickness ([1]; HI, Sild 10 mg/kg) of the same compound?
Its Total thickness is 205.64 ± 14.20 μm.

And the INL thickness ([1]; HI, Sild 50 mg/kg)?
Its INL thickness is 31.42 ± 1.66 μm.

And the IPL thickness ([1]; HI, Sild 50 mg/kg)?
The IPL thickness was 44.25 ± 11.86 μm.

What about the IS thickness ([1]; HI, Sild 50 mg/kg) of the same compound?
The IS thickness was 14.16 ± 0.25 μm.

And the ONL thickness ([1]; HI, Sild 50 mg/kg)?
Its ONL thickness is 52.81 ± 1.06 μm.

What about the OPL thickness ([1]; HI, Sild 50 mg/kg) of the same compound?
Its OPL thickness is 9.76 ± 0.84 μm.

And the “OS thickness (outer segment)” value ([1]; HI, Sild 50 mg/kg)?
The value was 27.87 ± 2.09 μm.

What about the RGC/FL thickness ([1]; HI, Sild 50 mg/kg) of the same compound?
Its RGC/FL thickness is 17.50 ± 4.07 μm.

What about the RPE thickness ([1]; HI, Sild 50 mg/kg) of the same compound?
Its RPE thickness is 8.03 ± 0.27 μm.

What about the Total thickness ([1]; HI, Sild 50 mg/kg) of the same compound?
The Total thickness was 205.80 ± 14.22 μm.

What about the photoreceptor degeneration ([1]; present example (rat pups)) of the same compound?
Its photoreceptor degeneration is “did not induce photoreceptor degeneration”.

What about the “myelin sheath thickness in corpus callosum and left external capsule” value ([2]; HI, all dosage) of the same compound?
Its value is “reverted the myelin sheath thickness back to levels comparable to sham vehicle rat animals”.

What about the “microvessel density in the white matter” value [2] of the same compound?
Its value is “no changes”.

What about the “number of total and mature oligodendrocytes in the left external capsule” value ([2]; after sildenafil) of the same compound?
The value was “no changes”.

And the “reactive astrocytosis and microgliosis in the corpus callosum and left external capsule” value ([2]; higher doses of sildenafil)?
The value was “significant reduction”.

And the “number of mature oligodendrocytes in the corpus callosum” value ([2]; sildenafil 50 mg/kg)?
Its value is “significantly increased”.

What about the “number of total oligodendrocytes in the corpus callosum” value ([2]; sildenafil 50 mg/kg) of the same compound?
The value was “significantly increased”.

What about the “total brain size, median (IQR)” value ([3]; high-dose sildenafil, not different from sham vehicle) of the same compound?
The value was 93.05 (91.53; 93.95).

And the “total brain size, median (IQR)” value ([3]; low-dose sildenafil, p<0.05 vs sham vehicle)?
The value was 92.19 (81.51; 97.58).

And the “total brain size, median (IQR)” value ([3]; medium-dose sildenafil, not different from sham vehicle)?
Its value is 94.05 (84.4; 95.0).
